Data on one molecule can be found in patent US8815565B2, “Method for culturing mycoplasma contamination-free cells and method for removing mycoplasma contamination of cells” (Cellsafe Co., Ltd., priority 2010, dated 2014).

Converted amounts (≈) assume the structure as drawn.

This assay has as its system Mycoplasma hyorhinis (ATCC17981s). In words: Inhibition of Mycoplasma hyorhinis cultured in PPLO medium, INT colour change. It is filed as cell-based. Particulars: Mycoplasma, read-out: concentration showing excellent inhibitory activity against mycoplasma. The protocol:
In order to evaluate the effects of the extract and amphidinol derivatives prepared in Example 1 on mycoplasma, Mycoplasma hyorhinis (ATCC17981s) was cultured in a PPLO medium (pleuropneumonia-like organism basal medium, Difco Laboratories, Detroit, USA) supplemented with a fetal calf serum and a yeast extract, according to the method disclosed by Hayflick (Hayflick, 1965, Tex. Rep. Bio. Med. 23, 285-303). That is, 100 μl of the medium was placed on each well of a 96-well plate, and a sample (that is, the extract and amphidinol derivatives prepared in Example 1) was added to each well, such that each sample was diluted from 2 times (i.e., 2× diluted) to 12 times (i.e., 12× diluted), the starting concentration being 1 mg/ml. Mycoplasma was cultured in a PPLO medium (pleuropneumonia-like organism basal medium, Difco Laboratories, Detroit, USA) supplemented with a fetal calf serum and a yeast extract, at a temperature of 37° C. for 48 hours. The resulting culture medium was diluted with the PPLO medium at a ratio of 1:10. 100 μl of the diluted culture medium was added to each well of the 96-well plate, so that the total amount of each well was 200 μl. After culturing at a temperature of 37° C. for 24 hours, 40 μl of 0.2 mg/ml INT (p-iodonitrotetrazolium) was added thereto and culturing was further performed for 4 hours. If the medium turns pink following the culturing, the color change means that metabolism of mycoplasma actively occurs. Also, if mycoplasma is suppressed by the sample, the medium turned pink less.

For the molecule `C=C/C=C/CC/C=C/C=C/C=C/CC/C=C/C(O)C(O)C1OC(C(O)C(O)C(=C)CCC(O)C2CC(O)C(O)C(C(O)C(O)/C=C(\C)CCC(O)CC(O)C(O)C(C)CC(O)C(O)CCCCCC(O)CCCC(O)/C=C/CC(O)/C=C/CC(O)CO)O2)CC(O)C1O` (stereo not shown) [AM3, amphidinol 3], the IC50 was around 0.25 µg/mL (≈ 0.188 µM).
